Numbers after ± are expanded uncertainties.
Conditions: Crystal; DTA

Normal melting temperature	SMILES
844 ± 0.6 °C	[F-].[Li+] [lithium fluoride]
559 ± 0.6 °C	[Ag][I] [silver iodide]
551 ± 0.6 °C	[Br-].[Li+] [lithium bromide]
